± gives the expanded uncertainty stated by the source.
Assays:
[1] = molar heat capacity at constant pressure; details: 101 kPa, Liquid, Large sample (1 g) DSC
[2] = molar heat capacity at constant pressure; xn = mol fraction of the nth substance listed; details: 101 kPa, Liquid, Large sample (1 g) DSC

CCCCCCn1cc[n+](C)c1.F[B-](F)(F)F [1-hexyl-3-methylimidazolium tetrafluoroborate]
[1]
Details	molar heat capacity at constant pressure [J/K/mol]
283.15 K	423.2 ± 6.6
288.15 K	425.8 ± 6.6
293.15 K	428.4 ± 6.6
298.15 K	431 ± 6.7
303.15 K	433.6 ± 6.7
308.15 K	436.2 ± 6.8
313.15 K	438.8 ± 6.8
318.15 K	441.4 ± 6.8
323.15 K	444 ± 6.9

CCCCCCn1cc[n+](C)c1.F[B-](F)(F)F [1-hexyl-3-methylimidazolium tetrafluoroborate] + CO
molar heat capacity at constant pressure [J/K/mol], [2]
Details	283.15 K	288.15 K	293.15 K	298.15 K	303.15 K	308.15 K	313.15 K	318.15 K	323.15 K
x1 = 0.0751	108 ± 1.7	108.7 ± 1.7	109.5 ± 1.7	110.3 ± 1.7	111.2 ± 1.7	112.2 ± 1.7	113.2 ± 1.8	114.2 ± 1.8	115.3 ± 1.8
x1 = 0.1511	135.5 ± 2.1	136.4 ± 2.1	137.4 ± 2.1	138.3 ± 2.1	139.3 ± 2.2	140.3 ± 2.2	141.3 ± 2.2	142.4 ± 2.2	143.4 ± 2.2
x1 = 0.2973	187.2 ± 2.9	188.1 ± 2.9	188.9 ± 2.9	189.9 ± 2.9	190.8 ± 3	191.8 ± 3	192.9 ± 3	193.9 ± 3	195.1 ± 3
x1 = 0.397	220.7 ± 3.4	221.7 ± 3.4	222.8 ± 3.5	223.9 ± 3.5	225.1 ± 3.5	226.3 ± 3.5	227.5 ± 3.5	228.8 ± 3.5	230.1 ± 3.6
x1 = 0.6423	301.9 ± 4.7	303.6 ± 4.7	305.3 ± 4.7	307 ± 4.8	308.7 ± 4.8	310.5 ± 4.8	312.3 ± 4.8	314.1 ± 4.9	315.9 ± 4.9
x1 = 0.8759	380.4 ± 5.9	382.7 ± 5.9	385 ± 6	387.4 ± 6	389.7 ± 6	392.1 ± 6.1	394.5 ± 6.1	396.9 ± 6.1	399.3 ± 6.2
x1 = 1	423.2 ± 6.6	425.8 ± 6.6	428.4 ± 6.6	431 ± 6.7	433.6 ± 6.7	436.2 ± 6.8	438.8 ± 6.8	441.4 ± 6.8	444 ± 6.9

CCCCCCCC[n+]1ccn(C)c1.F[B-](F)(F)F [1-methyl-3-octylimidazolium tetrafluoroborate]
[1]
Details	molar heat capacity at constant pressure [J/K/mol]
283.15 K	490.1 ± 7.6
288.15 K	493.2 ± 7.6
293.15 K	496.3 ± 7.7
298.15 K	499.4 ± 7.7
303.15 K	502.5 ± 7.8
308.15 K	505.4 ± 7.8
313.15 K	508.4 ± 7.9
318.15 K	511.3 ± 7.9
323.15 K	514.2 ± 8

Source: the NIST ThermoML archive (doi:10.1016/j.jct.2007.07.001)
